The source of these data is patent US20230241083A1, “FORMULATION COMPRISING CANNABINOIDS” (CANNOVEX BV, priority 2020, published 2023).

The data set in a line: Stability study of THC in a receiver solution. Format: physicochemical. The settings on record: receiver solution EtOH:H2O (50/50 vol); 3, 6, 8, 24, 30, 48 hours. An excerpt:
FIG. 2: Stability study of THC in a receiver solution.

With `CCCCCc1cc(O)c2c(c1)OC(C)(C)[C@@H]1CCC(C)=C[C@@H]21` [THC, Delta-9-tetrahydrocannabinol], the “THC concentration over time in receiver solution (stability)” value is given as “does not decay over time”.
